# Like-named read-outs stand apart in the source and are kept apart here.
# Test system: STAT5
# Experiment: Immunoblotting (Western blot) analysis of STAT5 degradation efficiency of degraders in treated cells
# Type: cell-based
# Method: Evaluation of the degradation efficiency of degraders may be accomplished by immunoblotting analysis. The representative general protocol is the following:
# Cells are maintained in the appropriate culture medium with 10% FBS at 37° C. and an atmosphere of 5% CO2. Cell lines are used within three months of thawing fresh vials. Cells are lysed 1× Cell Lysis Buffer (Cell Signaling Technology, #9803), resolved by SDS-PAGE NuPAGE gel (Thermo Fisher Scientific), and transferred to a PVDF membrane (Millipore). Membranes are blocked using Odyssey TBS Blocker Buffer (LI-COR). IRDye 680RD and 800CW Dye-labeled secondary antibodies (LI-COR) are used. The washed membranes are scanned using Odyssey CLx imager (LI-COR). The intensity of Western blot signaling is quantitated using the Odyssey software. Primary antibodies used are: STAT5 Rabbit mAb (Cell Signaling Technology, #94205), STAT6 Rabbit mAb (Cell Signaling Technology, #5397) and GAPDH mouse monoclonal antibody (Santa Cruz Biotechnology, sc-47724).
# To evaluate the degradation efficiency of degraders, immunoblotting analysis was performed. The general protocol is the following.
# About 1 million cells for each data point were treated with compounds at indicated concentrations and durations. Untreated and treated cells in cell culture medium were transferred into tubes, followed by centrifugation at 3,000 rpm and 4° C. for 6 min Supernatants were removed from tubes and radioimmunoprecipitation assay (RIPA) lysis buffer supplemented with 1% protease inhibitor cocktail (Fisher Scientific cat. PI87786) and phosphatase inhibitor (Roche cat. 04906837001) were added to tubes containing the remaining cell pellets. The tubes were then left on ice for 30 min and placed in a −80° C. freezer. Subsequently they were thawed in 37° C. water, then centrifuged at 14,000 rpm for 15 min and the cell lysates transferred to new tubes. The concentration of total proteins in each tube was calculated using the Pierce BCA protein Assay kit (cat. 23225). Based on the calculated protein concentration, cell lysates containing approximately the same amount of proteins were transferred to new tubes, then distilled water and 4× Protein Sample Loading Buffer for Western Blots (LI-COR cat. 928-40004) supplemented with 20% of mercaptoethanol (Sigma Aldrich cat. M6250) were added on ice. The cell lysates were then reduced and denatured at 95° C. for 5 min. From the tubes containing cell lysates an equal amount of protein samples (20-40 μg) was loaded into precast 8%, 10%, 4%-12%, or 4%-20% Tris-glycine gels (Novex) filled with Tris-glycine SDS running buffer. After the proteins were resolved, they were transferred onto Immobile-FL PVDF Membrane (Millipore Sigma cat. IPFL00010), using Mini Trans-Blot Electrophoretic Transfer Cell (Bio-Rad 1703930). The membranes were blocked with Intercept Blocking Buffer (LI-COR cat. 927-70001) in LI-COR Western Blot boxes for 1 h at rt. The membranes were washed with 1× Tris-buffered saline-Tween-20 (TBST, 1× solution was made from 20×TBST solution, ThermoFisher Scientific cat. 28360) for 5 min 4 times. The membranes were incubated overnight at 4° C. in Intercept Blocking Buffer supplemented with primary antibodies (normally antibody:buffer 1:1000) and Tween-20. The membranes were washed with TBST for 5 min 4 times and were incubated with Intercept Blocking Buffer supplemented with IRDye 800CE Secondary Antibodies, IRDye 680RD Secondary Antibodies (LI-COR biosciences), Tween-20, and 10% SDS solution, for 1 h at rt. The membranes were then washed with TBST for 5 min 4 times and rinsed with deionized water before drying and scanning with Odyssey Dlx Amazing System (LI-COR). The immunoblots were finally quantified by the software.
# [1] = MOLM-16 cells, numeric bound, read-out: DC50 S5 MOLM-16
# [2] = SKNO1 cells, read-out: DC50 S5 SKNO1
# [3] = KU-812 cells, read-out: DC50 S5 KU-812
SMILES,DC50 [1] [nM],DC50 [2] [nM],DC50 [3] [nM],"DC50 (MOLM-16 cells, class symbols, read-out: DC50 S5 MOLM-16) [nM]"
"CC(C)(C)[C@H](NC(=O)c1cc2cc(C(F)(F)P(=O)(O)O)ccc2s1)C(=O)N1CCC[C@H]1C(=O)N(CCC(=O)NCCCC#Cc1cccc2c1CN(C1CCC(=O)NC1=O)C2=O)c1ccc(C2CCOCC2)cc1 (stereo partly drawn) [Compound 651, ((2-(((2S)-1-((2S)-2-((3-((5-(2-(2,6-dioxopiperidin-3-yl)-1-oxoisoindolin-4-yl)pent-4-yn-1-yl)amino)-3-oxopropyl)(4-(tetrahydro-2H-pyran-4-yl)phenyl)carbamoyl)pyrrolidin-1-yl)-3,3-dimethyl-1-oxobutan-2-yl)carbamoyl)benzo[b]thiophen-5-yl)difluoromethyl)phosphonic acid]",> 300,> 10000,,
"CC(C)(C)[C@H](NC(=O)c1cc2cc(C(F)(F)P(=O)(O)O)ccc2s1)C(=O)N1CCC[C@H]1C(=O)N(CCC(=O)NCCCC#Cc1cccc2c1CN(C1CCC(=O)NC1=O)C2=O)c1cccc(C(F)(F)F)c1 (stereo partly drawn) [Compound 645, ((2-(((2S)-1-((2S)-2-((3-((5-(2-(2,6-dioxopiperidin-3-yl)-1-oxoisoindolin-4-yl)pent-4-yn-1-yl)amino)-3-oxopropyl)(3-(trifluoromethyl)phenyl)carbamoyl)pyrrolidin-1-yl)-3,3-dimethyl-1-oxobutan-2-yl)carbamoyl)benzo[b]thiophen-5-yl)difluoromethyl)phosphonic acid]",> 300,> 10000,,
"CC(C)(C)[C@H](NC(=O)c1cc2cc(C(F)(F)P(=O)(O)O)ccc2s1)C(=O)N1CCC[C@H]1C(=O)N(CCC(=O)NCCCC#Cc1cccc2c1CN(C1CCC(=O)NC1=O)C2=O)c1ccc(Cl)cc1 (stereo partly drawn) [Compound 635, ((2-(((2S)-1-((2S)-2-((4-chlorophenyl)(3-((5-(2-(2,6-dioxopiperidin-3-yl)-1-oxoisoindolin-4-yl)pent-4-yn-1-yl)amino)-3-oxopropyl)carbamoyl)pyrrolidin-1-yl)-3,3-dimethyl-1-oxobutan-2-yl)carbamoyl)benzo[b]thiophen-5-yl)difluoromethyl)phosphonic acid]",> 300,1000 to 10000,1000 to 10000,
"CC(C)(C)[C@H](NC(=O)c1cc2cc(C(F)(F)P(=O)(O)O)ccc2s1)C(=O)N1C[C@H](OCc2ccccc2)C[C@H]1C(=O)N(CCC(=O)NCCCCCC#Cc1cccc2c1CN(C1CCC(=O)NC1=O)C2=O)c1ccc(Br)cc1 (stereo partly drawn) [Compound 620, ((2-(((2S)-1-((2S,4R)-4-(benzyloxy)-2-((4-bromophenyl)(3-((7-(2-(2,6-dioxopiperidin-3-yl)-1-oxoisoindolin-4-yl)hept-6-yn-1-yl)amino)-3-oxopropyl)carbamoyl)pyrrolidin-1-yl)-3,3-dimethyl-1-oxobutan-2-yl)carbamoyl)benzo[b]thiophen-5-yl)difluoromethyl)phosphonic acid]",> 300,,,
"CC(C)(C)[C@H](NC(=O)c1cc2cc(C(F)(F)P(=O)(O)O)ccc2s1)C(=O)N1C[C@@H](OCc2ccccc2)C[C@H]1C(=O)N(CCC(=O)NCCCC#Cc1cccc2c1CN(C1CCC(=O)NC1=O)C2=O)c1ccc(Br)cc1 (stereo partly drawn) [Compound 623, ((2-(((2S)-1-((2S,4S)-4-(benzyloxy)-2-((4-bromophenyl)(3-((5-(2-(2,6-dioxopiperidin-3-yl)-1-oxoisoindolin-4-yl)pent-4-yn-1-yl)amino)-3-oxopropyl)carbamoyl)pyrrolidin-1-yl)-3,3-dimethyl-1-oxobutan-2-yl)carbamoyl)benzo[b]thiophen-5-yl)difluoromethyl)phosphonic acid]",> 300,,,
"CN(CCCC#Cc1cccc2c1CN(C1CCC(=O)NC1=O)C2=O)C(=O)CCN(C(=O)[C@@H]1CCCN1C(=O)[C@@H](NC(=O)c1cc2cc(C(F)(F)P(=O)(O)O)ccc2s1)C(C)(C)C)c1ccc2sccc2c1 (stereo partly drawn) [Compound 685, ((2-(((2S)-1-((2S)-2-(benzo[b]thiophen-5-yl(3-((5-(2-(2,6-dioxopiperidin-3-yl)-1-oxoisoindolin-4-yl)pent-4-yn-1-yl)(methyl)amino)-3-oxopropyl)carbamoyl)pyrrolidin-1-yl)-3,3-dimethyl-1-oxobutan-2-yl)carbamoyl)benzo[b]thiophen-5-yl)difluoromethyl)phosphonic acid]",,100 to 1000,100 to 1000,
"CC(C)(C)[C@H](NC(=O)c1cc2cc(C(F)(F)P(=O)(O)O)ccc2s1)C(=O)N1C[C@H](OCc2ccccc2)C[C@H]1C(=O)N(CCC(=O)NCCC#Cc1cccc2c1CN(C1CCC(=O)NC1=O)C2=O)c1ccc(Br)cc1 (stereo partly drawn) [Compound 617, ((2-(((2S)-1-((2S,4R)-4-(benzyloxy)-2-((4-bromophenyl)(3-((4-(2-(2,6-dioxopiperidin-3-yl)-1-oxoisoindolin-4-yl)but-3-yn-1-yl)amino)-3-oxopropyl)carbamoyl)pyrrolidin-1-yl)-3,3-dimethyl-1-oxobutan-2-yl)carbamoyl)benzo[b]thiophen-5-yl)difluoromethyl)phosphonic acid]",> 300,,,
"CC(C)(C)[C@H](NC(=O)c1cc2cc(C(F)(F)P(=O)(O)O)ccc2s1)C(=O)N1CCC[C@H]1C(=O)N(CC(=O)NCCCCC#Cc1cccc2c1CN(C1CCC(=O)NC1=O)C2=O)c1ccc(Cl)cc1 (stereo partly drawn) [Compound 641, ((2-(((2S)-1-((2S)-2-((4-chlorophenyl)(2-((6-(2-(2,6-dioxopiperidin-3-yl)-1-oxoisoindolin-4-yl)hex-5-yn-1-yl)amino)-2-oxoethyl)carbamoyl)pyrrolidin-1-yl)-3,3-dimethyl-1-oxobutan-2-yl)carbamoyl)benzo[b]thiophen-5-yl)difluoromethyl)phosphonic acid]",> 300,> 10000,,
"CN(CCCC#Cc1cccc2c1CN(C1CCC(=O)NC1=O)C2=O)C(=O)CCN(C(=O)[C@@H]1CCCN1C(=O)[C@H](CCc1ccccc1)NC(=O)c1cc2cc(C(F)(F)P(=O)(O)O)ccc2s1)c1ccc(-c2nccs2)cc1 (stereo partly drawn) [Compound 682, ((2-(((2S)-1-((2S)-2-((3-((5-(2-(2,6-dioxopiperidin-3-yl)-1-oxoisoindolin-4-yl)pent-4-yn-1-yl)(methyl)amino)-3-oxopropyl)(4-(thiazol-2-yl)phenyl)carbamoyl)pyrrolidin-1-yl)-1-oxo-4-phenylbutan-2-yl)carbamoyl)benzo[b]thiophen-5-yl)difluoromethyl)phosphonic acid]",,100 to 1000,100 to 1000,
"CC(C)(C)[C@H](NC(=O)c1cc2cc(C(F)(F)P(=O)(O)O)ccc2s1)C(=O)N1C[C@H](OCc2ccccc2)C[C@H]1C(=O)N(CCC(=O)NCC#Cc1cccc2c1CN(C1CCC(=O)NC1=O)C2=O)c1ccc(Br)cc1 (stereo partly drawn) [Compound 616, ((2-(((2S)-1-((2S,4R)-4-(benzyloxy)-2-((4-bromophenyl)(3-((3-(2-(2,6-dioxopiperidin-3-yl)-1-oxoisoindolin-4-yl)prop-2-yn-1-yl)amino)-3-oxopropyl)carbamoyl)pyrrolidin-1-yl)-3,3-dimethyl-1-oxobutan-2-yl)carbamoyl)benzo[b]thiophen-5-yl)difluoromethyl)phosphonic acid]",> 300,,,
"CC(C)(C)[C@H](NC(=O)c1cc2cc(C(F)(F)P(=O)(O)O)ccc2s1)C(=O)N1CCC[C@H]1C(=O)N(CCC(=O)NCCCC#Cc1cccc2c1CN(C1CCC(=O)NC1=O)C2=O)c1ccc(-c2cccs2)cc1 (stereo partly drawn) [Compound 648, ((2-(((2S)-1-((2S)-2-((3-((5-(2-(2,6-dioxopiperidin-3-yl)-1-oxoisoindolin-4-yl)pent-4-yn-1-yl)amino)-3-oxopropyl)(4-(thiophen-2-yl)phenyl)carbamoyl)pyrrolidin-1-yl)-3,3-dimethyl-1-oxobutan-2-yl)carbamoyl)benzo[b]thiophen-5-yl)difluoromethyl)phosphonic acid]",,100 to 1000,100 to 1000,< 100
CC(C)(C)[C@H](NC(=O)c1cc2cc(C(F)(F)P(=O)(O)O)ccc2s1)C(=O)N1C[C@H](OCc2ccccc2)C[C@H]1C(=O)N(CCC(=O)NCCCC#Cc1cccc2c1CN(C1CCC(=O)NC1=O)C2=O)c1ccc(Br)cc1 (stereo partly drawn) [Compound 618],> 300,,,

# — patent US20230295197A1, “STAT5 and STAT6 Degraders and Uses Thereof” (REGENTS OF THE UNIVERSITY OF MICHICAN, priority 2022, published 2023)
